This passage reports IC50 and MIC results from US20180312493A1, “Antibiotic Compounds, Pharmaceutical Formulations Thereof And Methods And Uses Therefor” (Simon Fraser University, priority 2015, published 2018).

Values after ≈ are worked out from the molar mass of the structure shown.

In one experiment the target is T1, MRSA Pyk (Staphylococcus aureus, UniProt Q6GG09).
T1 construct: made in house; host or cells: E. coli BL-21 (DE3)
Description: MRSA pyruvate kinase (PK) activity, continuous LDH-coupled assay. Format: biochemical, methicillin resistant S. aureus (MRSA252). From the text:
Genomic DNA of MRSA strain Sanger 252 extracted using DNeasy Tissue Kit™ (Qiagen™) was used as a template to generate the His-tagged MRSA PK. Human cDNA from MCF-7 breast cancer cell line (courtesy of Dr. J Wong, BC Cancer Research Center (Vancouver, Canada)) was used as a template to generate the full-length human M2 PK enzyme. The following primer sets were used creating appropriate restriction sites (NdeI and XhoI sites underlined): For cloning of MRSA PK: M27F 5′-[…]-3′ and M27R 5′-[…]-3′, for cloning of human M2 PK isoform: hM2F 5′-[…]-3′ and hM2R 5′-[…]-3′. The resulting PCR fragments for each construct were cloned into the NdeI and XhoI unique sites of the bacterial expression vector pET-28a (+) (Novagen™). […] The sequence and the correct reading frame of all constructs were verified by sequencing. Human M1, R and L PK constructs in pET-28-a(+) vectors (courtesy of Dr. L. Cantley, Harvard Medical, School (Boston, USA)) were used to generate relevant recombinant His-tagged human PK isoforms.
MRSA and human constructs in pET-28a(+) were used to express relevant recombinant PK proteins in E. coli BL-21 (DE3). The proteins were expressed and purified using Ni-NTA agarose (Qiagen™) according to the manufacturer's protocol. Briefly, cells were grown to an absorbance of 0.4-0.5 at 600 nm in 2×YT medium, then induced with 0.1 mM IPTG for 3 h at 20° C. Cells were lysed by sonication on ice (3×10-s bursts with a 30-s recovery between bursts) in lysis buffer (0.2 mg/ml lysozyme, 50 mM Tris pH 7.5, 10 mM MgCl2, 200 mM NaCl, 100 mM KCl, 10% glycerol, 10 mM imidazole, 0.5% NP-40 and 1 mM DTT containing Complete™ protease inhibitor). Cell lysates were cleared by centrifugation (18,000×g in a Beckman™ JA-20 rotor) for 20 min at 4° C. and PK isoforms were purified by batch binding to Ni-NTA resin. The resins were then packed in columns (1×2 cm) and washed with 400 column volumes lysis buffer containing 30 mM imidazole. His-tagged PK isoforms were eluted with the same buffer containing 300 mM imidazole. The proteins were dialyzed overnight at 4° C. against 2000 volumes of ice-cold 30 mM Tris pH 7.5, 25 mM KCl, 5 mM MgCl2, 10% glycerol and 1 mM DTT to remove imidazole. All purification steps were done at 4° C.; enzymes were flash-frozen and stored at −70° C. Enzymatic activity of frozen protein preparations was stable for at least 10 months and up to 5 freeze/thaw cycles. Purity and physical integrity of proteins were assessed using SDS-polyacrylamide gel electrophoresis (SDS-PAGE) followed by coomassie blue staining. Protein concentration was estimated by Bradford assay (Bio-Rad Protein Assay™) using bovine serum albumin as a standard.
Candidate MRSA PK inhibitors were assayed for their ability to inhibit enzymatic activities of MRSA and human PKs. PK activity was determined using a continuous assay coupled to lactate dehydrogenase (LDH) in which the change in absorbance at 340 nm owing to oxidation of NADH was measured using a Benchmark Plus™ microplate spectrophotometer (Bio-Rad Laboratories, Hercules, Calif.). […] Reactions were initiated by the addition of 15 nM of one of the PK enzymes. PK activity proportional to the rate of change at 340 nm was expressed as specific activity (μmol/min/mg), which is defined as the amount of PK that catalyzes the formation of one micromole of either product per minute. Inhibitors were dissolved in DMSO with the final concentration of the solvent never exceeding 1% of the assay volume. IC50 values were calculated by curve fitting on a four-parameter dose-response model with variable slope using Graphpad Prism 5.0™ (GraphPad™ Software Inc., La Jolla, Calif.). In all studies, less than 10% of total PEP was exhausted during the reaction. Reactions were performed at 30° C. for up to 5 min. All values determined represent at least two measurements, in triplicate (Tables 1-6) or duplicate unless mentioned otherwise. […]

Another experiment relates to S. aureus (ATCC29213). Briefly: In vitro susceptibility, broth microdilution (MIC). Type of experiment: cell-based. Conditions: Staphylococcus aureus; S. aureus ATCC29213; 18-24 h, 37 C; read-out: Antimicrobial activity (MIC) S. aureus ATCC29213. From the text:
Epidemic methicillin resistant S. aureus (MRSA) strain sequenced at the Sanger Centre (MRSA252, NRS71) was obtained from NARSA (Network on Antimicrobial Resistance in S. aureus). Methicillin sensitive S. aureus (ATCC 29213 and 25923), methicillin resistant S. aureus (ATCC BAA-1762), and Salmonella typhimurium (ATCC BAA-185) were obtained from ATCC, The Global Bioresource Center. Acinetobacter baumannii (ATCC 19606 and ATCC 17978), Klebsiella pneumonia (C238), vancomycin resistant Enterococci #2 (2010A) (VRE#2), MRSA (USA400, MW2) and Pseudomonas aeruginosa (PA0-1) were obtained from the laboratory of Dr B. B. Finlay at the University of British Columbia (Vancouver, Canada).
The antimicrobial activities of PK inhibitor candidates were determined using the 96-well microtiter standard 2-fold serial broth microdilution method as described by CLSI (formerly NCCLS) with the various gram-positive and gram-negative bacteria species mentioned above. Bacteria from a single colony were grown, overnight in either BHI Broth (VRE), mueller hinton broth (S. aureus 29213; MRSA USA400, A. baumannii 19606, MRSA BAA-1762) or L-broth (P. aeruginosa, S. typhimurium, K. pneumonia and A. baumannii 17978). […] Culture plates were incubated for 18-24 h at 37° C., and optical density at 600 nm (OD600) was measured using a Benchmark Plus™ microplate spectrophotometer (Bio-Rad™). The absorbance control values for the series containing CAMHB and inhibitor were subtracted as background from the corresponding infected wells. Minimal inhibitory concentration (MIC) was defined as the lowest concentration of test compound leading to complete inhibition of cell growth in relation to compound-free control wells as determined by optical density. Vancomycin, methicillin and ciprofloxicin were used as reference compounds. All assays were run in triplicate or duplicate. Experiments were replicated at least twice to verify reproducibility using the above conditions.
On the technique in general: Dilution methods test growth across graded concentrations, often in twofold steps.

T1 sequence (Q6GG09 whole entry): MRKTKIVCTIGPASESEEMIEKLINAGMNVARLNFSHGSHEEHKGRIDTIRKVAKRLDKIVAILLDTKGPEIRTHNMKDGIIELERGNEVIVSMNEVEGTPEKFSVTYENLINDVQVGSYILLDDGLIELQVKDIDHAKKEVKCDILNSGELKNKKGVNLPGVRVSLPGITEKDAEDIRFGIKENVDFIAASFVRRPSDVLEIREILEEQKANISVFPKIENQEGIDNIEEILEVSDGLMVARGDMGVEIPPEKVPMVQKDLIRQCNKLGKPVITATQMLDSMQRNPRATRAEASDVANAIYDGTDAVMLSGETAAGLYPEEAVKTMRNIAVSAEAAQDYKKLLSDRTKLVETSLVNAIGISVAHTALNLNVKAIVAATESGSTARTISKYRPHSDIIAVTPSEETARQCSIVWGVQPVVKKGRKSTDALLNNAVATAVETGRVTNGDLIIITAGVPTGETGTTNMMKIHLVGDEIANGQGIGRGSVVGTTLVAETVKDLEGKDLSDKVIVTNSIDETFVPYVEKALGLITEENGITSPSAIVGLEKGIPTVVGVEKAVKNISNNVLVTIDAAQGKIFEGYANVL

A word on the IC50: it is the point on the concentration scale where inhibition reaches its midpoint. In general, MIC refers to the lowest concentration found to suppress growth. The molecule `O=C(c1c(CCc2ccc(Cl)cc2)[nH]c2cc(Br)ccc12)N1CCOCC1` [Compound 47, (6-Bromo-2-(4-chlorophenethyl)-1H-indol-3-yl)(morpholino)methanone] came in with an IC50 on MRSA Pyk of more than 1 µM. In the experiment with S. aureus (ATCC29213), the MIC is more than 64 mg/L.
`O=C(c1ccccc1)c1c(/C=C/c2ccc(Cl)cc2)[nH]c2cc(Br)ccc12` [Compound 3, (E)-(6-Bromo-2-(4-chlorostyryl)-1H-indol-3-yl)(phenyl)methanone]: the IC50 against MRSA Pyk was less than 0.1 µM. The MIC with S. aureus (ATCC29213) is 16 mg/L (≈ 36.6 µM).
Turning to `OC(c1c(/C=C/c2ccc(Cl)cc2)[nH]c2cc(Br)ccc12)(C(F)(F)F)C(F)(F)F` [Compound 13, (E)-2-(6-Bromo-2-(4-chlorostyryl)-1H-indol-3-yl)-1,1,1,3,3,3-hexafluoropropan-2-ol], at MRSA Pyk, the IC50 lay in the range of 0.1 to 1 µM. Also, the minimal inhibitory concentration (MIC) in the experiment with S. aureus (ATCC29213) came to 1 mg/L (≈ 2.01 µM).
Consider `O=C(c1c(-c2cc3ccccc3[nH]2)[nH]c2cc(Br)ccc12)N1CCOCC1` [Compound 76, (6-Bromo-1H,1′H-[2,2′-biindol]-3-yl)(morpholino)methanone], for which the IC50 against MRSA Pyk is more than 1 µM. Besides, in the experiment on S. aureus (ATCC29213), the MIC is more than 64 mg/L.
For `O=C(NCCN1CCN[C@H](C(=O)O)C1)c1c(-c2cc3cc(Cl)ccc3[nH]2)[nH]c2cc(Br)ccc12` [Compound 229, (S)-4-(2-(6-bromo-5′-chloro-1H,1′H-[2,2′-biindole]-3-carboxamido)ethyl)piperazine-2-carboxylic Acid] the same measures were less than 0.1 µM and more than 64 mg/L.
As for `CN(C)CCN(C)C(=O)c1c(/C=C/c2ccc(Cl)cc2)[nH]c2cc(Br)ccc12` [Compound 24, (E)-6-Bromo-2-(4-chlorostyryl)-N-(2-(dimethylamino)ethyl)-N-methyl-1H-indole-3-carboxamide], the IC50 on MRSA Pyk fell in the range of 0.1 to 1 µM. In addition, the MIC in the experiment on S. aureus (ATCC29213) is more than 64 mg/L.
Molecule `CC(C)(C)OC(=O)COc1cc2[nH]c(-c3cc4ccc(Br)cc4[nH]3)cc2cc1Cl` [Compound 186, tert-Butyl 2-((6′-bromo-5-chloro-1H,1′H-[2,2′-biindol]-6-yl)oxy)acetate] showed an IC50 on MRSA Pyk of less than 0.1 µM. In addition, the MIC in the experiment on S. aureus (ATCC29213) was more than 64 mg/L.
`CN(C)CCOC(=O)c1c(C(=O)Nc2ccc(Cl)cc2)[nH]c2cc(Br)ccc12` [Compound 82, 2-(Dimethylamino)ethyl 6-bromo-2-((4-chlorophenyl)carbamoyl)-1 H-indole-3-carboxylate] returned an IC50 against MRSA Pyk of less than 0.1 µM. Besides, the MIC in the experiment on S. aureus (ATCC29213) is more than 64 mg/L.
For the molecule `O=C(O)COc1cc2[nH]c(-c3cc4ccc(Br)cc4[nH]3)cc2cc1Cl` [Compound 187, 2-((6′-Bromo-5-chloro-1H,1′H-[2,2′-biindol]-6-yl)oxy)acetic Acid], the IC50 against MRSA Pyk was less than 0.1 µM. Also, the MIC in the experiment with S. aureus (ATCC29213) came to 64 mg/L (≈ 153 µM).
In turn, `Clc1ccc(/C=C/c2[nH]c3cc(Br)ccc3c2-c2nn[nH]n2)cc1` [Compound 69, (E)-6-Bromo-2-(4-chlorostyryl)-3-(2H-tetrazol-5-yl)-1H-indole] yielded an IC50 against MRSA Pyk of less than 0.1 µM. Besides, the MIC in the experiment with S. aureus (ATCC29213) amounted to 16 mg/L (≈ 39.9 µM).
At MRSA Pyk, `O=C(NCCC1CCOCC1)c1c(/C=C/c2ccc(Cl)cc2)[nH]c2cc(Br)ccc12` [Compound 42, (E)-6-Bromo-2-(4-chlorostyryl)-N-(2-(tetrahydro-2H-pyran-4-yl)ethyl)-1H-indole-3-carboxamide] registered an IC50 of 0.1 to 1 µM. In the experiment with S. aureus (ATCC29213), the MIC is more than 64 mg/L.
The corresponding values for `O=C(NC(CO)CO)c1c(/C=C/c2ccc(Cl)cc2)[nH]c2cc(Br)ccc12` [Compound 32, (E)-6-Bromo-2-(4-chlorostyryl)-N-(1,3-dihydroxypropan-2-yl)-1H-indole-3-carboxamide] are less than 0.1 µM and more than 64 mg/L.
For the molecule `O=C(NCc1ccccc1)c1cc(Br)cc2[nH]c(/C=C/c3ccc(Cl)cc3)cc12` [Compound 63, (E)-N-Benzyl-6-bromo-2-(4-chlorostyryl)-1H-indole-4-carboxamide], the IC50 on MRSA Pyk fell in the range of 0.1 to 1 µM. In addition, the MIC with S. aureus (ATCC29213) was more than 64 mg/L.
Molecule `O=C(c1c(/C=C/c2ccc(Cl)cc2)[nH]c2cc(Br)ccc12)C1CCOCC1` [Compound 1, (E)-(6-Bromo-2-(4-chlorostyryl)-1H-indol-3-yl)(tetrahydro-2H-pyran-4-yl)methanone] displayed a half-inhibitory concentration (IC50) on MRSA Pyk of less than 0.1 µM. Also, in the experiment on S. aureus (ATCC29213), the minimum inhibitory concentration (MIC) was more than 64 mg/L.
The corresponding values for `O=C(NC1CCNCC1)c1c(/C=C/c2ccc(Cl)cc2)[nH]c2cc(Br)ccc12` [Compound 53, (E)-6-Bromo-2-(4-chlorostyryl)-N-(piperidin-4-yl)-1H-indole-3-carboxamide] are less than 0.1 µM and 8 mg/L (≈ 17.4 µM).
On MRSA Pyk, `CN1CCN(CCNC(=O)c2c(/C=C/c3ccc(Cl)cc3)[nH]c3cc(Br)ccc23)CC1` [Compound 31, (E)-6-Bromo-2-(4-chlorostyryl)-N-(2-(4-methylpiperazin-1-yl)ethyl)-1 H-indole-3-carboxamide] returned an IC50 of less than 0.1 µM. Also, in the experiment with S. aureus (ATCC29213), the MIC was 16 mg/L (≈ 31.9 µM).
The corresponding values for `O=C(c1c(/C=C/c2ccc(Cl)cc2)[nH]c2cc(Br)ccc12)N1CCOCC1` [Compound 22, (E)-(6-Bromo-2-(4-chlorostyryl)-1H-indol-3-yl)(morpholino)methanone] are less than 0.1 µM and more than 64 mg/L.
Consider `O=C(NCCN1CCNCC1)c1c(/C=C/c2ccc(Cl)cc2)[nH]c2cc(Br)ccc12` [Compound 52, (E)-6-Bromo-2-(4-chlorostyryl)-N-(2-(piperazin-1-yl)ethyl)-1H-indole-3-carboxamide], for which, on MRSA Pyk, the IC50 is less than 0.1 µM. In addition, the MIC with S. aureus (ATCC29213) was found to be 16 mg/L (≈ 32.8 µM).
The corresponding values for `N[C@@H](CCCCNC(=O)c1c(/C=C/c2ccc(Cl)cc2)[nH]c2cc(Br)ccc12)C(=O)O` [Compound 54, (S,E)-2-Amino-6-(6-bromo-2-(4-chlorostyryl)-1H-indole-3-carboxamido)hexanoic Acid] are less than 0.1 µM and more than 64 mg/L.
The corresponding values for `CN(C)CCNC(=O)c1c(C(=O)Nc2ccc(Cl)cc2)[nH]c2cc(Br)ccc12` [Compound 81, 6-Bromo-N2-(4-chlorophenyl)-N3-(2-(dimethylamino)ethyl)-1H-indole-2,3-dicarboxamide] are less than 0.1 µM and more than 64 mg/L.
